This note sets out measurements from ChEMBL document CHEMBL4819112, “Design, synthesis and antitumor activity of phthalazine-1,4-dione-based menaquinone analogs” (Bioorg Med Chem Lett, 2021).

The source made the active and inactive calls. The rule behind the calls is not given here.

A short description of series [1]: (§1) Growth inhibition of human JHH7 cells measured after 24 hrs. Format: functional, cell-based. The conditions noted are these: JHH7, 24 h.
The next series has as its system Hepatocyte. Put plainly: Growth inhibition of human hepatocytes cells upto 10 uM measured after 24 hrs. Format: cell-based.
For a further series, the system named is FLC-4. Kind of series: Growth inhibition of human FLC-4 cells measured after 24 hrs. Format: functional, cell-based.
The subject of the next series is JHH7. The description is as §1. Format: functional, cell-based.

Consider `CC(C)=CCC/C(C)=C/Cn1c(=O)c2ccccc2c(=O)n1C`, for which 340 nM corresponded to half-maximal inhibition in series [1] (IC50). The Activity result with Hepatocyte is listed as “Non-Toxic”. Moreover, in the series on FLC-4, the outcome was Active.
Turning to `C/C(=C\CC/C(C)=C/Cn1c(=O)c2ccccc2c(=O)n1C)CC/C=C(\C)CC/C=C(\C)C(=O)O`, the result with JHH7 was Active.
On to `CC(C)=CCn1c(=O)c2ccccc2c(=O)n1C`, for which the outcome with JHH7 was Active. Further, the Activity entry in the series with Hepatocyte is on record as “Non-Toxic”.
Regarding `CC(C)=CCC/C(C)=C/CC/C(C)=C/Cn1c(=O)c2ccccc2c(=O)n1C`, the outcome in the series on JHH7 was Active.
The same measure, in the same setting: as for `CC(C)=CCC/C(C)=C/CC/C(C)=C/CC/C(C)=C/Cn1c(=O)c2ccccc2c(=O)n1C`, the entry is “Active”.
